From US6242199A, “Assays for growth hormone secretagogue receptors” (Merck & Co., Inc., priority 1998, dated 2001)

Tests used:
human Type II GHSR = test: Aequorin bioluminescence assay in Xenopus oocytes, human Type II GHSR; type: cell-based; conditions: human Type II-derived cRNA truncated in TM-6
Protocol: (§1) Xenopus laevis oocytes were isolated and injected using standard methods previously described by Arena, et. al. 1991, Mol. Pharmacol. 40, 368-374, which is hereby incorporated by reference. Adult female Xenopus Laevis frogs (purchased from Xenopus One, Ann Arbor, Mich.) were anesthetized with 0.17% tricaine methanesulfonate and the ovaries were surgically removed and placed in a 60 mm culture dish (Falcon) containing OR-2 medium without calcium (82.5 mM NaCl, 2 mM KCl, 2.5 mM sodium pyruvate, 1 mM MgCl2, 100 μ/ml penicillin, 1 mg/ml streptomycin, 5 mM HEPES, pH=7.5; ND-96 from Specialty Media, NJ). Ovarian lobes were broken open, rinsed several times, and oocytes were released from their sacs by collagenase A digestion (Boehringer-Mannheim; 0.2% for 2-3 hours at 18° C.) in calcium-free OR-2. […]
(§2) The ABA requires injection of library pool cRNA (25 ng/egg for pool sizes of 500 to 10,000) with aequorin cRNA (2 ng/egg) supplemented with the G-protein alpha subunit Gα11 (2 ng/egg). […] Polymerase chain reaction (PCR) was utilized to generate a DNA fragment corresponding to the open reading frame (ORF) of the aequorin cDNA with an optimized Kosak translational initiation sequence (Inouye, S. et. al., 1985, Proc. Natl. Acad. Sci. USA 82:3154-3158). […]

swine Type I GHSR = test: Aequorin bioluminescence assay in Xenopus oocytes, swine Type I GHSR; type: cell-based; conditions: swine Type I cRNA in oocytes; tested from 1 μM down
Protocol: as §1, §2

[1] = molecular target: T1, growth hormone secretagogue receptor (GHSR), porcine anterior pituitary membranes (Sus scrofa, UniProt Q95254); test: [35S]-Compound A radioreceptor binding, porcine anterior pituitary membranes
T1 construct: Frozen anterior pituitary glands from male swine (50-80 Kg); from tissue; host or cells: anterior pituitary glands of male swine (50-80 kg), crude membranes
Protocol: Frozen anterior pituitary glands from male swine (50-80 Kg) or from the Wistar male rats (150-200 g) were homogenized in a tissue homogenizer in ice-cold buffer (50 mM Tris-HCl buffer, pH 7.4, 5 mM MgCl2, 2.5 mM EDTA, 0.1% bovine serum albumin and 30 μg/ml bacitracin). The homogenates were centrifuged for 5 min at 1,400×g and the resulting supernatants were then centrifuged at 34,000×g for 20 min. The pellets were resuspended in same buffer to a 1,500 μg protein/ml and stored at -80° C. Protein was determined by a Bio-Rad method (Bio-Rad Laboratories, Richmond, Calif.).
Aliquots were incubated at 20° C. for 60 min and bound radioligand was separated from free by filtration through GF/C filters pretreated with 0.5% of polyethylenimine in a Brandel cell harvester. […] Assays were carried out in triplicate and experiments repeated at least three times.

human Type I GHSR = test: Aequorin bioluminescence assay in Xenopus oocytes, human Type I GHSR; type: cell-based; conditions: human Type I cRNA in oocytes; tested from 1 μM down
Protocol: as §1, §2

T1 sequence (Q95254 whole entry): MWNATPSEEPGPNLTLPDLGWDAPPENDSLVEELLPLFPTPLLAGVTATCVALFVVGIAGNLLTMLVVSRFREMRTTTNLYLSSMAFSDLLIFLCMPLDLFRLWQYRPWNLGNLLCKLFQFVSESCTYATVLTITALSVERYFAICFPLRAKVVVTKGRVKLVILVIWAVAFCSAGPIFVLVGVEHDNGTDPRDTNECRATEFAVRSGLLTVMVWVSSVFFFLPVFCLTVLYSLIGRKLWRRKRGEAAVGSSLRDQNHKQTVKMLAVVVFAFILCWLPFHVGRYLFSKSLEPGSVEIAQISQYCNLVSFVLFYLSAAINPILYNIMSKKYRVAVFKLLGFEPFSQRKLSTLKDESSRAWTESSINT

specific binding of [35S]-Compound A detected in the absence of Mg2+ ([1]; absence of Mg2+, in comparison with control (10 mM Mg2+)): 15-25%
Ki ([1]; competition with [35S]-Compound A, read-out: inhibition constant, Ki): 0.24 nM
concentration (Bmax) ([1]; porcine anterior pituitary membranes, Scatchard analysis, n=4): 6.3±0.6 fmol/mg of protein
Kd ([1]; porcine anterior pituitary membranes, Scatchard analysis, n=4, read-out: apparent dissociation constant (KD)): 0.161 ± 0.011 nM
specific binding of total binding ([1]; porcine membranes, nonspecific in 500 nM unlabeled Compound A): 65-85%
displacement of / competition with [35S]-Compound A binding (in words) ([1]; unlabeled competitor, FIG. 24): completely displaced
SMILES: CC(C)(N)C(=O)N[C@H](COCc1ccccc1)C(=O)N1CCC2(CC1)CN(S(C)(=O)=O)c1ccccc12 [Compound A, (N-[1(R)-[1,2-dihydro-1-methanesulfonlylspiro[3H-indole-3,4'-piperidin]-1'-yl)carbonyl]-2-(phenylmethyloxy)-ethyl]-2-amino-2-methyl-propanamide]
response (in words) (human Type II GHSR): failed to give a response
lowest Compound A concentration giving a response (swine Type I GHSR): 0.1 nM
lowest Compound A concentration giving a response (human Type I GHSR): 0.1 nM
